Patent publication US6472348B1, “Pyridone derivatives and herbicides” (Kumiai Chemical Industry Co., Ltd., priority 1996, dated 2002)

What was measured:
Type in all cases: in vivo
[1] = test system: common lambsquarters (Ch); assay: Test Example 3: herbicidal effects by upland field foliage treatment; parameters: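 grade of growth control; 5 = at least 90%; 4 = 70 to 90%; 3 = 50 to 70%; 2 = 30 to 50%; 1 = 10 to 30%; 0 = under 10%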
Experimental: (§1) (Test on Herbicidal Effects by Upland Field Foliage Treatment)
(§2) In a plastic pot (surface area: 120 cm^2) filled with sand, barnyardgrass (Ec), Diaitaria ciliaris (Di), pale smartweed (Po), slender amaranth (Am), common lambsquarters (Ch) and rice flatsedge (Ci) were sown and covered with soil and were cultured in a green house for 2 weeks. […] The plants were then cultured in the green house, and the evaluation of the herbicidal effects was conducted on the 14th day after the treatment in accordance with the standards as identified in Table 47. Symbol—represents “not tested”.

[2] = test system: pale smartweed (Po); assay: as above; parameters: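 grade of growth control; 5 = at least 90%; 4 = 70 to 90%; 3 = 50 to 70%; 2 = 30 to 50%; 1 = 10 to 30%; 0 = under 10%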
Experimental: as §1, §2

[3] = test system: rice flatsedge (Ci); assay: as above; parameters: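 grade of growth control; 5 = at least 90%; 4 = 70 to 90%; 3 = 50 to 70%; 2 = 30 to 50%; 1 = 10 to 30%; 0 = under 10%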
Experimental: as §1, §2

[4] = test system: Diaitaria ciliaris (Di); assay: as above; parameters: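 grade of growth control; 5 = at least 90%; 4 = 70 to 90%; 3 = 50 to 70%; 2 = 30 to 50%; 1 = 10 to 30%; 0 = under 10%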
Experimental: as §1, §2

[5] = test system: slender amaranth (Am); assay: as above; parameters: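 grade of growth control; 5 = at least 90%; 4 = 70 to 90%; 3 = 50 to 70%; 2 = 30 to 50%; 1 = 10 to 30%; 0 = under 10%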
Experimental: as §1, §2

[6] = test system: barnyardgrass (Ec); assay: as above; parameters: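 grade of growth control; 5 = at least 90%; 4 = 70 to 90%; 3 = 50 to 70%; 2 = 30 to 50%; 1 = 10 to 30%; 0 = under 10%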
Experimental: as §1, §2

[7] = test system: monochoria (Mo); assay: Test Example 1: herbicidal effects by paddy field soil treatment; details: 100 g of the active ingredient per 10 ares, 21st day after the application, index 0-5 of Table 47;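 also: grade of growth control; 5 = at least 90%; 4 = 70 to 90%; 3 = 50 to 70%; 2 = 30 to 50%; 1 = 10 to 30%; 0 = under 10%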
Experimental: (§3) (Test on Herbicidal Effects by Paddy Field Soil Treatment)
(§4) In a plastic pot (surface area: 100 cm^2) filled with paddy field soil, barnyardgrass (Ec), monochoria (Mo) and bulrush (Sc) were sown after puddling and leveling, and flooded to a water depth of 3 cm. […] The dose was 100 g of the active ingredient per 10 ares. The plants were then cultured in a green house, and the evaluation of the herbicidal effects was conducted on the 21st day after the application in accordance with the standards as identified in Table 47.

[8] = test system: bulrush (Sc); assay: as above; details: 100 g of the active ingredient per 10 ares, 21st day after the application, index 0-5 of Table 47;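 also: grade of growth control; 5 = at least 90%; 4 = 70 to 90%; 3 = 50 to 70%; 2 = 30 to 50%; 1 = 10 to 30%; 0 = under 10%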
Experimental: as §3, §4

[9] = test system: barnyardgrass (Ec); assay: as above; details: 100 g of the active ingredient per 10 ares, 21st day after the application, index 0-5 of Table 47
Experimental: as §3, §4

[10] = test system: Digitaria ciliaris (Di); assay: Test Example 2: herbicidal effects by upland field soil treatment; details: 100 g of the active ingredient per 10 ares;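 also: grade of growth control; 5 = at least 90%; 4 = 70 to 90%; 3 = 50 to 70%; 2 = 30 to 50%; 1 = 10 to 30%; 0 = under 10%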
From the text: (§5) (Test on Herbicidal Effects by Upland Field Soil Treatment)

[11] = test system: common lambsquarters (Ch); assay: as above; details: 100 g of the active ingredient per 10 ares
From the text: as §5

[12] = test system: pale smartweed (Po); assay: as above; details: 100 g of the active ingredient per 10 ares
From the text: as §5

[13] = test system: rice flatsedge (Ci); assay: as above; details: 100 g of the active ingredient per 10 ares
From the text: as §5

[14] = test system: slender amaranth (Am); assay: as above; details: 100 g of the active ingredient per 10 ares
From the text: as §5

[15] = test system: barnyardgrass (Ec); assay: as above; details: 100 g of the active ingredient per 10 ares
From the text: as §5

[16] = 100 g of the active ingredient per 10 ares, evaluated on the 14th day after treatment
[17] = 21st day after the application, index 0-5 of Table 47
[18] = evaluated on the 21st day after application
[19] = 100 g active ingredient per 10 ares, evaluated 14th day after treatment

For CC(C)=NOC(=O)c1cc(-c2ccc(C(F)(F)F)n(C)c2=O)c(F)cc1Cl [1-68], the “Herbicidal effects Ch” value [1, 16] was 5, the “Herbicidal effects Po” value [2, 16] was 5 and the “Herbicidal effects Ci” value [3, 16] was 5. For the same compound, the “Herbicidal effects Di” value [4, 16] was 5, the “Herbicidal effects Am” value [5, 16] was 5 and the “Herbicidal effects Ec” value [6, 16] was 5. The “Herbicidal effects Mo” value [7] was 5, the “Herbicidal effects Sc” value [8] was 5 and the “Herbicidal effects Ec” value [9] was 5.
With COC(=O)C(Cl)Cc1cc(-c2ccc(C(F)(F)F)n(C)c2=O)c(F)cc1Cl (centres unmarked) [1-70] the “Herbicidal effects Ch” value [1, 16] was 5, the “Herbicidal effects Po” value [2, 16] was 5 and the “Herbicidal effects Ci” value [3, 16] was 5. For the same compound, the “Herbicidal effects Di” value [4, 16] was 5, the “Herbicidal effects Am” value [5, 16] was 5 and the “Herbicidal effects Ec” value [6, 16] was 5. For the same compound, the “Herbicidal effects Mo” value [7] was 5, the “Herbicidal effects Sc” value [8] was 5 and the “Herbicidal effects Ec” value [9] was 5.
For Cn1c(C(F)(F)F)ccc(-c2cc(Oc3nc(Cl)cs3)c(Cl)cc2F)c1=O [1-103], the “Herbicidal effects Di” value [10, 17] was 5, the “Herbicidal effects Ch” value [11, 17] was 5 and the “Herbicidal effects Po” value [12, 17] was 5. The “Herbicidal effects Ci” value [13, 17] was 5, the “Herbicidal effects Am” value [14, 17] was 5 and the “Herbicidal effects Ec” value [15, 17] was 4. For the same compound, the “Herbicidal effects Mo” value [7] was 5, the “Herbicidal effects Sc” value [8] was 5 and the “Herbicidal effects Ec” value [9] was 5.
In the case of COc1cc(-c2ccc(C(F)(F)F)n(C)c2=O)ccc1Cl [1-108], the “Herbicidal effects Ch” value [1, 16] is reported as 5, the “Herbicidal effects Po” value [2, 16] is reported as 5 and the “Herbicidal effects Ci” value [3, 16] is reported as 5. The “Herbicidal effects Di” value [4, 16] was 5, the “Herbicidal effects Am” value [5, 16] was 5 and the “Herbicidal effects Ec” value [6, 16] was 5. For the same compound, the “Herbicidal effects Ch” value [11, 17] was 5, the “Herbicidal effects Po” value [12, 17] was 5 and the “Herbicidal effects Ci” value [13, 17] was 5. For the same compound, the “Herbicidal effects Am” value [14, 17] was 5, the “Herbicidal effects Ec” value [15, 17] was 5 and the “Herbicidal effects Mo” value [7] was 5. For the same compound, the “Herbicidal effects Sc” value [8] was 5 and the “Herbicidal effects Ec” value [9] was 5.
In the case of C#CCSc1cc(-c2ccc(C(F)(F)F)n(C)c2=O)ccc1Cl [1-112], the “Herbicidal effects Di” value [10, 17] is reported as 5, the “Herbicidal effects Ch” value [11, 17] is reported as 5 and the “Herbicidal effects Po” value [12, 17] is reported as 5. For the same compound, the “Herbicidal effects Ci” value [13, 17] was 5, the “Herbicidal effects Am” value [14, 17] was 5 and the “Herbicidal effects Ec” value [15, 17] was 5. The “Herbicidal effects Mo” value [7] was 5, the “Herbicidal effects Sc” value [8] was 5 and the “Herbicidal effects Ec” value [9] was 5.
For CCCCCOC(=O)CSc1cc(-c2ccc(C(F)(F)F)n(C)c2=O)c(Cl)cc1Cl [1-123], the “Herbicidal effects Ch” value [1, 16] was 5, the “Herbicidal effects Po” value [2, 16] was 5 and the “Herbicidal effects Ci” value [3, 16] was 5. The “Herbicidal effects Di” value [4, 16] was 5, the “Herbicidal effects Am” value [5, 16] was 5 and the “Herbicidal effects Ec” value [6, 16] was 4. For the same compound, the “Herbicidal effects Mo” value [7] was 5, the “Herbicidal effects Sc” value [8] was 5 and the “Herbicidal effects Ec” value [9] was 5.
For Cn1c(C(F)(F)F)ccc(-c2cc(SCC(=O)O)c(Cl)cc2Cl)c1=O [1-127], the “Herbicidal effects Ch” value [1, 16] was 5, the “Herbicidal effects Po” value [2, 16] was 5 and the “Herbicidal effects Ci” value [3, 16] was 5. The “Herbicidal effects Di” value [4, 16] was 5, the “Herbicidal effects Am” value [5, 16] was 5 and the “Herbicidal effects Ec” value [6, 16] was 4. The “Herbicidal effects Mo” value [7] was 5, the “Herbicidal effects Sc” value [8] was 5 and the “Herbicidal effects Ec” value [9] was 5.
With Cn1c(C(F)(F)F)ccc(-c2cc(Sc3ncccn3)c(Cl)cc2Cl)c1=O [1-131] the “Herbicidal effects Di” value [10, 17] was 5, the “Herbicidal effects Ch” value [11, 17] was 5 and the “Herbicidal effects Po” value [12, 17] was 5. The “Herbicidal effects Ci” value [13, 17] was 5, the “Herbicidal effects Am” value [14, 17] was 5 and the “Herbicidal effects Ec” value [15, 17] was 5. The “Herbicidal effects Mo” value [7] was 5, the “Herbicidal effects Sc” value [8] was 5 and the “Herbicidal effects Ec” value [9] was 5.
For CCOC(=O)COC(=O)c1cc(-c2ccc(C(F)(F)F)n(C)c2=O)c(F)cc1Cl [1-142], the “Herbicidal effects Ch” value [1, 16] was 5, the “Herbicidal effects Po” value [2, 16] was 5 and the “Herbicidal effects Ci” value [3, 16] was 5. For the same compound, the “Herbicidal effects Di” value [4, 16] was 5, the “Herbicidal effects Am” value [5, 16] was 5 and the “Herbicidal effects Ec” value [6, 16] was 5. The “Herbicidal effects Mo” value [7] was 5, the “Herbicidal effects Sc” value [8] was 5 and the “Herbicidal effects Ec” value [9] was 5.
For Cn1c(C(F)(F)F)ccc(-c2cc(C(N)=O)c(Cl)cc2F)c1=O [1-145], the “Herbicidal effects Ch” value [1, 16] was 5, the “Herbicidal effects Po” value [2, 16] was 5 and the “Herbicidal effects Ci” value [3, 16] was 5. The “Herbicidal effects Di” value [4, 16] was 5, the “Herbicidal effects Am” value [5, 16] was 5 and the “Herbicidal effects Ec” value [6, 16] was 5. For the same compound, the “Herbicidal effects Mo” value [7] was 5, the “Herbicidal effects Sc” value [8] was 5 and the “Herbicidal effects Ec” value [9] was 5.
For Cn1c(C(F)(F)F)ccc(-c2cc(OC3CCCO3)c(Cl)cc2F)c1=O (centres unmarked) [Compound 1-183], the “Herbicidal effects Ch” value [1, 16] was 5, the “Herbicidal effects Po” value [2, 16] was 5 and the “Herbicidal effects Ci” value [3, 16] was 5. The “Herbicidal effects Di” value [4, 16] was 5, the “Herbicidal effects Am” value [5, 16] was 5 and the “Herbicidal effects Ec” value [6, 16] was 4. The “Herbicidal effects Mo” value [7] was 5, the “Herbicidal effects Sc” value [8] was 5 and the “Herbicidal effects Ec” value [9] was 5.
With Cn1c(C(F)(F)F)ccc(-c2ccc(Cl)c(Cl)c2)c1=O [Compound 1-185] the “Herbicidal effects Di” value [10, 18] was 5, the “Herbicidal effects Ch” value [11, 18] was 5 and the “Herbicidal effects Po” value [12, 18] was 4. The “Herbicidal effects Ci” value [13, 18] was 5, the “Herbicidal effects Am” value [14, 18] was 5 and the “Herbicidal effects Ec” value [15, 18] was 5.
In the case of Cn1c(C(F)(F)F)ccc(-c2cc(Cl)c(Cl)cc2Cl)c1=O [Compound 1-186], the “Herbicidal effects Di” value [10, 18] is reported as 5, the “Herbicidal effects Ch” value [11, 18] is reported as 5 and the “Herbicidal effects Po” value [12, 18] is reported as 5. The “Herbicidal effects Ci” value [13, 18] was 5, the “Herbicidal effects Am” value [14, 18] was 5 and the “Herbicidal effects Ec” value [15, 18] was 5. For the same compound, the “Herbicidal effects Mo” value [7] was 5, the “Herbicidal effects Sc” value [8] was 4 and the “Herbicidal effects Ec” value [9] was 5.
For C=CC(=O)c1cc(-c2ccc(C(F)(F)F)n(C)c2=O)c(F)cc1Cl [Compound 1-198], the “Herbicidal effects Ch” value [1, 19] was 5, the “Herbicidal effects Po” value [2, 19] was 5 and the “Herbicidal effects Ci” value [3, 19] was 5. The “Herbicidal effects Di” value [4, 19] was 5, the “Herbicidal effects Am” value [5, 19] was 5 and the “Herbicidal effects Ec” value [6, 19] was 5. The “Herbicidal effects Mo” value [7] was 5, the “Herbicidal effects Sc” value [8] was 5 and the “Herbicidal effects Ec” value [9] was 5.
In the case of CNC(=O)COc1cc(-c2ccc(C(F)(F)F)n(C)c2=O)c(F)cc1Cl [Compound 1-209], the “Herbicidal effects Di” value [10, 18] is reported as 4, the “Herbicidal effects Ch” value [11, 18] is reported as 5 and the “Herbicidal effects Po” value [12, 18] is reported as 5. The “Herbicidal effects Ci” value [13, 18] was 5, the “Herbicidal effects Am” value [14, 18] was 5 and the “Herbicidal effects Ec” value [15, 18] was 4. The “Herbicidal effects Mo” value [7] was 5, the “Herbicidal effects Sc” value [8] was 5 and the “Herbicidal effects Ec” value [9] was 5.
For CNS(=O)(=O)c1cc(-c2ccc(C(F)(F)F)n(C)c2=O)ccc1Cl [Compound 1-257], the “Herbicidal effects Di” value [10, 18] was 5, the “Herbicidal effects Ch” value [11, 18] was 5 and the “Herbicidal effects Po” value [12, 18] was 5. The “Herbicidal effects Ci” value [13, 18] was 5, the “Herbicidal effects Am” value [14, 18] was 5 and the “Herbicidal effects Ec” value [15, 18] was 5. The “Herbicidal effects Mo” value [7] was 5, the “Herbicidal effects Sc” value [8] was 5 and the “Herbicidal effects Ec” value [9] was 5.
With Cn1c(C(F)(F)F)ccc(-c2cc(O)c(Cl)cc2F)c1=O [Compound No. 1-13] the “Herbicidal effects Ch” value [1, 16] was 5, the “Herbicidal effects Po” value [2, 16] was 5 and the “Herbicidal effects Ci” value [3, 16] was 5. The “Herbicidal effects Di” value [4, 16] was 5, the “Herbicidal effects Am” value [5, 16] was 5 and the “Herbicidal effects Ec” value [6, 16] was 5. For the same compound, the “Herbicidal effects Mo” value [7] was 5, the “Herbicidal effects Sc” value [8] was 5 and the “Herbicidal effects Ec” value [9] was 5.
With CCOC(=O)COc1cc(-c2ccc(C(F)(F)F)n(C)c2=O)c(F)cc1Cl [Compound No. 1-19] the “Herbicidal effects Ch” value [1, 16] was 5, the “Herbicidal effects Po” value [2, 16] was 5 and the “Herbicidal effects Ci” value [3, 16] was 5. The “Herbicidal effects Di” value [4, 16] was 5, the “Herbicidal effects Am” value [5, 16] was 5 and the “Herbicidal effects Ec” value [6, 16] was 5. For the same compound, the “Herbicidal effects Mo” value [7] was 5, the “Herbicidal effects Sc” value [8] was 5 and the “Herbicidal effects Ec” value [9] was 5.
With Cc1ccc(-c2ccc(Cl)cc2)c(=O)[nH]1 [comparative agent, reference compound] the “Herbicidal effects Di” value [10, 18] was 0, the “Herbicidal effects Ch” value [11, 18] was 0 and the “Herbicidal effects Po” value [12, 18] was 0. For the same compound, the “Herbicidal effects Ci” value [13, 18] was 0, the “Herbicidal effects Am” value [14, 18] was 0 and the “Herbicidal effects Ec” value [15, 18] was 0.
